Measured values from patent US20070128217A1 (priority 2003, published 2007).

Experiments:
[1] = tested on: control sera (pooled serum of ten healthy LUMC hospital workers; commercial negative donor pooled serum from the Dutch bloodbank); assay type: binding, human; design: Binding of Control serum LUMC to linear peptides / Binding of Control serum Blood-bank to linear peptides / Binding of Control serum LUMC to looped peptides / Binding of Control Serum Blood-Bank to Looped peptides / Binding of Control serum LUMC to linear peptides of the protein M of SARS-CoV Urbani / Binding of Control serum Blood-bank to linear peptides of the protein M of SARS-CoV Urbani / Binding of Control serum LUMC to looped peptides of the protein M of SARS-CoV Urbani / Binding of Control Serum Blood-Bank to Looped peptides of the protein M of SARS-CoV Urbani: unit not given here
[2] = tested on: rabbit serum obtained by immunizing a rabbit with the SARS-CoV strain Frankfurt 1; assay type: binding; design: Binding of a rabbit serum to linear peptides / Binding of a rabbit serum to looped peptides / Rabbit serum linear peptides / Rabbit serum looped peptides / Binding of a rabbit serum to linear peptides of protein N of SARS-CoV Urbani (Rabbit serum linear peptides) / Binding of a rabbit serum to looped/cyclic peptides of protein N of SARS-CoV Urbani (Rabbit serum looped peptides): unit not given here
[3] = tested on: antibodies in sera from SARS patients (sera 1a, 1b, 2, 6, 37, 62, London, SARS-yellow, SARS-green); assay type: binding, human; design: Binding of serum 6 to linear peptides of protein X1 of SARS-CoV Urbani / Binding of serum 37 to linear peptides of protein X1 of SARS-CoV Urbani / Binding of serum 6 to looped/cyclic peptide (PEPSCAN-ELISA) / Binding of serum 37 to looped/cyclic peptide (PEPSCAN-ELISA) / Binding of serum 37 to looped/cyclic peptides of protein X1 of SARS-CoV Urbani / Binding of serum 6 to linear peptides of protein X2 / Binding of serum 37 to linear peptides of protein X2 / Binding of serum 37 to looped/cyclic peptides of protein X2 of SARS-CoV Urbani / Binding of serum 6 to linear peptides of protein M of SARS-CoV Urbani / Binding of serum 37 to linear peptides of protein M of SARS-CoV Urbani / Binding of serum 6 to looped/cyclic peptides of protein M of SARS-CoV Urbani / Binding of serum 37 to looped/cyclic peptides of protein M of SARS-CoV Urbani / Binding of serum 6 to linear peptides of protein X3 of SARS-CoV Urbani / Binding of serum 37 to linear peptides of protein X3 of SARS-CoV Urbani / Binding of serum 37 to looped/cyclic peptides of protein X3 of SARS-CoV Urbani / Binding of serum 6 to linear peptides of protein X4 of SARS-CoV Urbani / Binding of serum 37 to linear peptides of protein X4 of SARS-CoV Urbani / Binding of serum 37 to looped/cyclic peptides of protein X4 of SARS-CoV Urbani / Binding of serum 6 to linear peptides of protein X5 of SARS-CoV Urbani / Binding of serum 37 to linear peptides of protein X5 of SARS-CoV Urbani / Binding of serum 37 to looped/cyclic peptides of protein X5 of SARS-CoV Urbani / Binding of serum 6 to linear peptides of protein N of SARS-CoV Urbani / Binding of serum 37 to linear peptides of protein N of SARS-CoV Urbani / Binding of serum 6 to linear peptide (PEPSCAN-ELISA) / Binding of serum 1a to looped/cyclic peptides of protein N of SARS-CoV Urbani / Binding of serum 1b to looped/cyclic peptides of protein N of SARS-CoV Urbani / Binding of serum 2 to looped/cyclic peptides of protein N of SARS-CoV Urbani / Binding of serum 6 to looped/cyclic peptides of protein N of SARS-CoV Urbani / Binding of serum 37 to looped/cyclic peptides of protein N of SARS-CoV Urbani / Binding of serum 62 to looped/cyclic peptides of protein N of SARS-CoV Urbani / Binding of serum London to looped/cyclic peptides of protein N of SARS-CoV Urbani / Binding of serum SARS-green to looped/cyclic peptides of protein N of SARS-CoV Urbani: unit not given here

PAGGALIARCWYLHE
Binding of Control Serum Blood-Bank to Looped peptides [1]: 0.8
Binding of Control serum Blood-bank to linear peptides [1]: 0.7
Binding of Control serum LUMC to linear peptides [1]: 0.4
Binding of Control serum LUMC to looped peptides [1]: 0.5
Rabbit serum linear peptides [2]: 0.5
Rabbit serum looped peptides [2]: 0.5
Binding of serum 1a to linear peptides of protein X5 of SARS-CoV Urbani [3]: 0.8
Binding of serum 1a to looped/cyclic peptides of protein X5 of SARS-CoV Urbani [3]: 0.8
Binding of serum 1b to linear peptides of protein X5 of SARS-CoV Urbani [3]: 0.9
Binding of serum 1b to looped/cyclic peptides of protein X5 of SARS-CoV Urbani [3]: 0.6
Binding of serum 2 to linear peptides of protein X5 of SARS-CoV Urbani [3]: 0.6
Binding of serum 2 to looped/cyclic peptides of protein X5 of SARS-CoV Urbani [3]: 0.6
Binding of serum 6 to linear peptides of protein X5 of SARS-CoV Urbani [3]: 0.8
Binding of serum 6 to looped/cyclic peptides of protein X5 of SARS-CoV Urbani [3]: 0.4
Binding of serum 37 to linear peptides of protein X5 of SARS-CoV Urbani [3]: 0.9
Binding of serum 37 to looped/cyclic peptides of protein X5 of SARS-CoV Urbani [3]: 0.7
Binding of serum 62 to linear peptides of protein X5 of SARS-CoV Urbani [3]: 0.9
Binding of serum 62 to looped/cyclic peptides of protein X5 of SARS-CoV Urbani [3]: 0.7
Binding of serum London to linear peptides of protein X5 of SARS-CoV Urbani [3]: 0.7
Binding of serum London to looped/cyclic peptides of protein X5 of SARS-CoV Urbani [3]: 0.3
Binding of serum SARS-green to linear peptides of protein X5 of SARS-CoV Urbani [3]: 0.9
Binding of serum SARS-green to looped/cyclic peptides of protein X5 of SARS-CoV Urbani [3]: 0.6
Binding of serum SARS-yellow to linear peptides of protein X5 of SARS-CoV Urbani [3]: 0.3
Binding of serum SARS-yellow to looped/cyclic peptides of protein X5 of SARS-CoV Urbani [3]: 0.5

PCPSGTYEGNSPFHP
Binding of Control Serum Blood-Bank to Looped peptides [1]: 0.7
Binding of Control serum Blood-bank to linear peptides [1]: 0.6
Binding of Control serum LUMC to linear peptides [1]: 0.5
Binding of Control serum LUMC to looped peptides [1]: 0.9
Rabbit serum linear peptides [2]: 0.6
Rabbit serum looped peptides [2]: 0.4
Binding of serum 1a to linear peptides of protein X4 of SARS-CoV Urbani [3]: 0.7
Binding of serum 1a to looped/cyclic peptides of protein X4 of SARS-CoV Urbani [3]: 0.7
Binding of serum 1b to linear peptides of protein X4 of SARS-CoV Urbani [3]: 0.5
Binding of serum 1b to looped/cyclic peptides of protein X4 of SARS-CoV Urbani [3]: 0.1
Binding of serum 2 to linear peptides of protein X4 of SARS-CoV Urbani [3]: 0.4
Binding of serum 2 to looped/cyclic peptides of protein X4 of SARS-CoV Urbani [3]: 0.7
Binding of serum 6 to linear peptides of protein X4 of SARS-CoV Urbani [3]: 0.5
Binding of serum 6 to looped/cyclic peptides of protein X4 of SARS-CoV Urbani [3]: 0.5
Binding of serum 37 to linear peptides of protein X4 of SARS-CoV Urbani [3]: 0.7
Binding of serum 37 to looped/cyclic peptides of protein X4 of SARS-CoV Urbani [3]: 0.7
Binding of serum 62 to linear peptides of protein X4 of SARS-CoV Urbani [3]: 0.7
Binding of serum 62 to looped/cyclic peptides of protein X4 of SARS-CoV Urbani [3]: 0.7
Binding of serum London to linear peptides of protein X4 of SARS-CoV Urbani [3]: 0.7
Binding of serum London to looped/cyclic peptides of protein X4 of SARS-CoV Urbani [3]: 0.3
Binding of serum SARS-green to linear peptides of protein X4 of SARS-CoV Urbani [3]: 0.5
Binding of serum SARS-green to looped/cyclic peptides of protein X4 of SARS-CoV Urbani [3]: 0.4
Binding of serum SARS-yellow to linear peptides of protein X4 of SARS-CoV Urbani [3]: 0.7
Binding of serum SARS-yellow to looped/cyclic peptides of protein X4 of SARS-CoV Urbani [3]: 0.4
